Experimental data published in patent US8058243B2, “Method for treating a brain cancer with ifenprodil” (HSC Research and Development Limited Partnership, priority 2006, dated 2011).
Counter-ions that a name gives are not always drawn. Like-named read-outs stand apart in the source and are kept apart here.

System: murine neural precursor cells (neurosphere cultures)
Experiment: HTS of LOPAC library against secondary neurosphere cultures, MTT proliferation assay at 3 μM, day 7 (z score, P value)
Type: cell-based, mouse
[1] = LOPAC library screen, 3 μM, MTT, secondary neurosphere cultures, day 7
[2] = LOPAC primary screen, neurosphere MTT proliferation, 3 μM, day 7
[3] = yes = significantly inhibited neurosphere proliferation (P<0.01) in the primary screen
[4] = yes/no: significantly inhibited neurosphere proliferation (P<0.01) in primary screen
[5] = LOPAC library screen at 3 μM, secondary neurosphere cultures, MTT
[6] = yes/no: significantly inhibited neurosphere proliferation (P<0.01) in the primary screen
[7] = LOPAC library screen, 3 μM, MTT, neurosphere cultures
[8] = LOPAC screen, neurosphere MTT proliferation, 3 μM, day 7
[9] = primary LOPAC screen, 3 μM, MTT, neurosphere proliferation
[10] = yes/no: significantly inhibited neurosphere proliferation in the primary screen

SMILES	Z score [2]	Activity [4]	Z Score	further results
CC(=O)[C@]1(O)Cc2c(O)c3c(c(O)c2[C@@H](O[C@H]2C[C@H](N)[C@H](O)[C@H](C)O2)C1)C(=O)c1ccccc1C3=O [Idarubicin]	−11.274	–	–	Z Score [1]: −11.27; Activity [3]: yes
c1ccc2c(c1)OCC(C1=NCCN1)O2 (centres unmarked) [Idazoxan hydrochloride]	−1.448	no	–	Z Score [1]: −1.448
O=C1CCC(c2ccc(-n3ccnc3)cc2)=NN1 [Imazodan]	–	no	–	Z Score (168 h, 3 µM): 0.4616; Z score (168 h, 3 µM): 0.462
N=C(N)SCCc1cnc[nH]1 [Imetit dihydrobromide]	–	–	−0.2452	Z score: −0.245
Cl.O=C(O)Cc1c[nH]cn1 [Imidazole-4-acetic acid hydrochloride]	−0.922	no	−0.9223	–
CCn1ccnc1CC1COc2ccccc2O1 (centres unmarked) [Imiloxan hydrochloride]	−0.988	no	–	Z Score [5]: −0.9879
CN(C)CCCN1c2ccccc2CCc2ccccc21 [Imipramine hydrochloride]	−0.527	–	–	Activity: no; Z Score [5]: −0.5272
CN[C@@H]1C[C@@H](c2ccc(Cl)c(Cl)c2)c2ccccc21 [Indatraline hydrochloride]	−0.724	no	−0.7236	–
O=C1Nc2ccccc2/C1=C1/Nc2ccccc2/C1=N\O [Indirubin-3′-oxime]	−0.397	no	–	Z Score [5]: −0.3965
COc1ccc2c(c1)c(CC(=O)N1CCOCC1)c(C)n2C(=O)c1ccc(Cl)cc1 [Indomethacin morpholinylamide]	–	–	–	Z Score (168 h, 3 µM): −3.398; Z score (168 h, 3 µM): −3.398; Activity [6]: yes
COc1ccc2c(c1)c(CC(=O)O)c(C)n2C(=O)c1ccc(Cl)cc1 [Indomethacin]	−0.356	–	–	Z Score [5]: −0.3563; Activity [6]: no
NC(=O)CI [Iodoacetamide]	−8.706	–	−8.706	Activity [6]: yes
CC(C)NC(C)Cc1ccc(I)cc1 (centres unmarked) [Iofetamine hydrochloride]	−0.759	–	−0.7588	–
CC(C)[N+]1(C)[C@@H]2CC[C@H]1CC(OC(=O)C(CO)c1ccccc1)C2.[Br-] (some centres unmarked) [Ipratropium bromide]	−0.308	no	−0.308	–
O=C(O)C1=CCNCC1 [Isoguvacine hydrochloride]	−2.220	no	–	Z Score [1]: −2.22
O=C(/C=C/c1ccc(O)cc1)c1ccc(O)cc1O [Isoliquiritigenin]	–	–	–	Z Score (168 h, 3 µM): −2.817; Z score (168 h, 3 µM): −2.817; Activity [6]: yes
O=C(O)C1CCNCC1 [Isonipecotic acid]	–	no	–	Z Score (168 h, 3 µM): −0.4569; Z score (168 h, 3 µM): −0.457
CCC(NC(C)C)C(O)c1ccc(O)c(O)c1.CS(=O)(=O)O (centres unmarked) [Isotharine mesylate]	−0.639	no	−0.6392	–
Nc1nc2[nH]c(=O)cnc2c(=O)[nH]1 [Isoxanthopterin]	0.234	no	0.2339	–
CC[C@H](C)[C@H]1O[C@]2(CC[C@@H]1C)C[C@@H]1C[C@@H](C/C=C(\C)[C@@H](O[C@H]3C[C@H](OC)[C@@H](O[C@H]4C[C@H](OC)[C@@H](O)[C@H](C)O4)[C@H](C)O3)[C@@H](C)/C=C/C=C3\CO[C@@H]4[C@H](O)C(C)=C[C@@H](C(=O)O1)[C@]34O)O2 [Ivermectin]	1.507	no	1.507	–
CCCn1c(C)c(C(=O)c2cccc3ccccc23)c2ccccc21 [JWH-015]	0.622	no	0.6223	–
C=C(C)[C@H]1CN[C@H](C(=O)O)[C@H]1CC(=O)O [Kainic acid]	−0.317	no	−0.3169	–
CCN1C[C@]2(C)CC[C@H](O)[C@]34C1[C@@H](C[C@H]23)[C@@]1(O)C[C@H](OC)[C@H]2C[C@@H]4[C@@H]1[C@H]2O [Karakoline]	−1.625	no	−1.625	–
O=C1Cc2c([nH]c3ccc(Br)cc23)-c2ccccc2N1 [Kenpaullone]	–	no	–	Z Score (168 h, 3 µM): −1.555; Z score (168 h, 3 µM): −1.555
O=C(c1ccc(F)cc1)C1CCN(CCn2c(=O)[nH]c3ccccc3c2=O)CC1 [Ketanserin tartrate]	–	–	–	Z Score (168 h, 3 µM): −3.325; Z score (168 h, 3 µM): −3.325; Activity [6]: yes
CC(=O)N1CCN(c2ccc(OCC3COC(Cn4ccnc4)(c4ccc(Cl)cc4Cl)O3)cc2)CC1 (centres unmarked) [Ketoconazole]	–	–	–	Activity: no; Z Score (168 h, 3 µM): 0.586; Z score (168 h, 3 µM): 0.586
CC(C(=O)O)c1cccc(C(=O)c2ccccc2)c1 (centres unmarked) [Ketoprofen]	−1.164	–	–	Activity: no; Z Score [5]: −1.164

SMILES	Z score [2]	Activity [4]	Z Score	further results
NC(CO)(CO)CO.O=C(c1ccccc1)c1ccc2n1CCC2C(=O)O (centres unmarked) [Ketorolac tris salt]	−0.726	no	–	Z Score [5]: −0.7256
CN1CCC(=C2c3ccccc3CC(=O)c3sccc32)CC1 [Ketotifen fumarate]	0.957	no	–	Z Score [7]: 0.9573
O=C(O)c1cc(=O)c2ccccc2[nH]1 [Kynurenic acid]	0.702	no	–	Z Score [7]: 0.7018
N[C@@H](CCCC(=O)O)C(=O)O [L-2-aminoadipic acid]	–	–	–	Z Score (168 h, 3 µM): −2.334; Z score (168 h, 3 µM): −2.334; Activity [6]: yes
COC(=O)[C@@H](N)Cc1ccc(O)c(O)c1.Cl [L-3,4-Dihydroxyphenylalanine methyl ester hydrochloride]	–	no	–	Z Score [7]: 0.2769; Z score [8]: 0.277
N[C@@H](Cc1ccc(O)c(O)c1)C(=O)O [L-3,4-Dihydroxyphenylalanine]	–	no	–	Z Score (168 h, 3 µM): 2.44; Z score (168 h, 3 µM): 2.440
CCCCOC(=O)NS(=O)(=O)c1sc(CC(C)C)cc1-c1ccc(Cn2c(CC)nc3c(C)cc(C)nc32)cc1 [L-162,313]	0.792	no	0.7923	–
CCCc1c(OCCCOc2ccc(OCC(=O)O)cc2)ccc(C(C)=O)c1O [L-165,041]	0.306	no	0.3062	–
Cc1ccccc1N1CCN(S(=O)(=O)CC23CCC(CC2NC(=O)C(N)CCS(C)(=O)=O)C3(C)C)CC1 [L-368,899]	0.291	no	0.2909	–
Cc1c(CC(C)(C)C(=O)O)n(Cc2ccc(Cl)cc2)c2ccc(F)cc12 [L-655,240]	−0.121	no	−0.121	–
Nc1ccc(N2C(=O)c3ccccc3C2=O)c(Cl)c1 [L-655,708]	−0.613	no	−0.6132	–
Cl.c1ccc(CN2CCC3(CCCc4ccccc43)CC2)cc1 [L-687,384 hydrochloride]	−9.156	–	−9.156	Activity [3]: yes
CC1CN(S(=O)(=O)c2cccc3cnccc23)CCN1.Cl.Cl [L-701,324]	0.451	–	0.4513	–
Ic1ccccc1CNC1C2CCN(CC2)C1C(c1ccccc1)c1ccccc1.O=C(O)C(=O)O [L-703,606 oxalate]	−0.507	–	–	Z Score [5]: −0.5069; Activity [3]: no
CC(=O)N[C@@H](Cc1c[nH]c2ccccc12)C(=O)OCc1cc(C(F)(F)F)cc(C(F)(F)F)c1 [L-732,138]	–	–	0.5027	Z score [9]: 0.503; Activity [10]: no
Cl.FC(F)(F)c1cc(CO[C@H]2CCCN[C@H]2c2ccccc2)cc(C(F)(F)F)c1 [L-733,060 hydrochloride]	−1.465	–	−1.465	Activity [3]: no
OC1(c2ccc(Cl)cc2)CCN(Cc2c[nH]c3ccccc23)CC1 [L-741,626]	−1.009	–	−1.009	Activity [3]: no
Cl.Clc1ccc(N2CCN(Cc3c[nH]c4ncccc34)CC2)cc1 [L-745,870 hydrochloride]	−11.274	–	−11.27	–
Cl.Cl.Cl.Ic1ccc(N2CCN(Cc3c[nH]c4ncccc34)CC2)cc1 [L-750,667 trihydrochloride]	−1.184	–	−1.184	Activity [6]: no
COc1cc2nc(N3CCN(C(=O)OCc4ccccc4)[C@H](C(=O)NC(C)(C)C)C3)nc(N)c2cc1OC [L-765,314]	−0.831	–	−0.8308	Activity [6]: no
N=C(N)NCCC[C@H](N)C(=O)O [L-Arginine]	–	–	0.5592	Z score [9]: 0.559; Activity [10]: no
N[C@@H](CC(=O)O)C(=O)O [L-Aspartic acid]	–	–	–	Activity: no; Z Score (168 h, 3 µM): 0.1632; Z score (168 h, 3 µM): 0.163
CCCCS(=N)(=O)CCC(N)C(=O)O [L-Buthionine-sulfoximine]	–	no	–	Z Score [7]: 0.5134; Z score [8]: 0.513
N=C(N)NOCC[C@H](N)C(=O)O.O=S(=O)(O)O [L-Canavanine sulfate]	–	no	−0.9024	Z score [8]: −0.902
N[C@H]1CONC1=O [L-Cycloserine]	–	–	–	Z Score [5]: −0.1552; Z score [9]: −0.155; Activity [10]: no
N[C@@H](CS(=O)O)C(=O)O [L-Cysteinesulfinic Acid]	–	no	–	Z Score [7]: 1.458; Z score [8]: 1.458
Cl.N[C@@H](CCC(=O)O)C(=O)O [L-Glutamic acid hydrochloride]	−0.473	no	−0.4727	–
